Experimental data reported in the CheMixHub viscosity set.
Values joined by “and” are separate entries in the source; they are usually repeats but may differ in a detail not shown here. Identical values can stand only once. ± gives the uncertainty stated by the source.

Assay: xn = mol fraction of the nth substance listed

O=CC(Cl)(Cl)Cl + OCc1ccccc1
viscosity [mPa·s], 101 kPa
Conditions	298.15 K	323.15 K
x1 = 0.0986	7.956 ± 0.33	3.521 ± 0.15
x1 = 0.1891	12.34 ± 0.51	4.774 ± 0.2
x1 = 0.2795	18.57 ± 0.77	6.41 ± 0.27
x1 = 0.3562	21.83 ± 0.91	6.783 ± 0.28
x1 = 0.4064	40.42 ± 1.7	9.558 ± 0.4
x1 = 0.4364	50.35 ± 2.1	10.85 ± 0.46
x1 = 0.4751	55.16 ± 2.3	10.57 ± 0.45
x1 = 0.493	54.24 ± 2.2	10.21 ± 0.45
x1 = 0.4998	51.18 ± 2.1	10.01 ± 0.94
x1 = 0.5395	39.89 ± 1.7	8.491 ± 0.36
x1 = 0.5925	24.53 ± 1	6.78 ± 0.28
x1 = 0.6679	9.262 ± 0.39	3.796 ± 0.16
x1 = 0.7564	2.888 ± 0.12	1.639 ± 0.068
x1 = 0.8827	2.072 ± 0.086	1.307 ± 0.054

ClC(Cl)Cl + C1COCCO1
Conditions	viscosity [mPa·s]
293.15 K, 101.33 kPa, x1 = 0.152	1.199 ± 0.031
293.15 K, 101.33 kPa, x1 = 0.2726	1.129 ± 0.029
293.15 K, 101.33 kPa, x1 = 0.3876	1.063 ± 0.028
293.15 K, 101.33 kPa, x1 = 0.4413	1.035 ± 0.027
293.15 K, 101.33 kPa, x1 = 0.516	0.992 ± 0.026
293.15 K, 101.33 kPa, x1 = 0.6385	0.919 ± 0.024
293.15 K, 101.33 kPa, x1 = 0.7409	0.819 ± 0.021
293.15 K, 101.33 kPa, x1 = 0.8856	0.677 ± 0.018
298.15 K, 101 kPa, x1 = 0.2	1.08 ± 0.012
298.15 K, 101 kPa, x1 = 0.4	0.981 ± 0.012
298.15 K, 101 kPa, x1 = 0.6	0.865 ± 0.011
298.15 K, 101 kPa, x1 = 0.8	0.703 ± 0.011
298.15 K, 101.33 kPa, x1 = 0.152	1.073 ± 0.028
298.15 K, 101.33 kPa, x1 = 0.2726	1.018 ± 0.026
298.15 K, 101.33 kPa, x1 = 0.3876	0.964 ± 0.025
298.15 K, 101.33 kPa, x1 = 0.4413	0.952 ± 0.025
298.15 K, 101.33 kPa, x1 = 0.516	0.905 ± 0.023
298.15 K, 101.33 kPa, x1 = 0.6385	0.837 ± 0.022
298.15 K, 101.33 kPa, x1 = 0.7409	0.774 ± 0.02
298.15 K, 101.33 kPa, x1 = 0.8856	0.658 ± 0.017
303.15 K, 101 kPa, x2 = 0.0995	0.59 ± 0.006
303.15 K, 101 kPa, x2 = 0.1981	0.672 ± 0.007
303.15 K, 101 kPa, x2 = 0.2998	0.75 ± 0.007
303.15 K, 101 kPa, x2 = 0.3953	0.801 ± 0.008
303.15 K, 101 kPa, x2 = 0.4992	0.857 ± 0.008
303.15 K, 101 kPa, x2 = 0.5971	0.91 ± 0.009
303.15 K, 101 kPa, x2 = 0.6993	0.956 ± 0.009
303.15 K, 101 kPa, x2 = 0.8015	0.997 ± 0.01
303.15 K, 101 kPa, x2 = 0.9021	1.044 ± 0.01
303.15 K, 101.33 kPa, x1 = 0.2137	1.007 ± 0.026
303.15 K, 101.33 kPa, x1 = 0.3447	0.949 ± 0.024
303.15 K, 101.33 kPa, x1 = 0.4212	0.934 ± 0.024
303.15 K, 101.33 kPa, x1 = 0.4813	0.886 ± 0.023
303.15 K, 101.33 kPa, x1 = 0.5194	0.879 ± 0.023
303.15 K, 101.33 kPa, x1 = 0.5698	0.844 ± 0.022
303.15 K, 101.33 kPa, x1 = 0.7088	0.752 ± 0.019

O=C(O)CCl + C[N+](C)(C)CCO.[Cl-]
101 kPa, x2 = 0.333
Conditions	viscosity [mPa·s]
293.15 K	161 ± 4.1
298.15 K	117.9 ± 2.8
303.15 K	88.59 ± 2
308.15 K	68.11 ± 1.5
313.15 K	53.44 ± 1.1
318.15 K	42.65 ± 0.91
323.15 K	34.65 ± 0.74

O=[N+]([O-])[O-].[Na+] + N
293.15 K, 101 kPa
Conditions	viscosity [mPa·s]
x1 = 0.02	0.182 ± 0.005
x1 = 0.039	0.225 ± 0.006
x1 = 0.081	0.374 ± 0.009

CCOCCOCC + COCCO
viscosity [mPa·s], 101.33 kPa
Conditions	298.15 K	308.15 K
x1 = 0.0157	1.497 ± 0.037	1.223 ± 0.031
x2 = 0.0142	0.608 ± 0.017	0.529 ± 0.015
x2 = 0.0354	0.617 ± 0.017	0.539 ± 0.015
x2 = 0.0658	0.631 ± 0.017	0.549 ± 0.016
x2 = 0.0821	0.639 ± 0.018	0.553 ± 0.016
x2 = 0.1085	0.647 ± 0.018	0.561 ± 0.016
x2 = 0.1503	0.663 ± 0.018	0.578 ± 0.016
x2 = 0.2016	0.685 ± 0.019	0.592 ± 0.017
x2 = 0.28	0.723 ± 0.02	0.62 ± 0.017
x2 = 0.3202	0.742 ± 0.02	0.639 ± 0.018
x2 = 0.3604	0.767 ± 0.021	0.655 ± 0.018
x2 = 0.4322	0.812 ± 0.022	0.691 ± 0.019
x2 = 0.4797	0.847 ± 0.022	0.718 ± 0.019
x2 = 0.5152	0.875 ± 0.023	0.739 ± 0.02
x2 = 0.5455	0.901 ± 0.024	0.758 ± 0.02
x2 = 0.5957	0.946 ± 0.025	0.792 ± 0.021
x2 = 0.6464	0.996 ± 0.026	0.832 ± 0.022
x2 = 0.7119	1.066 ± 0.027	0.883 ± 0.023
x2 = 0.7472	1.105 ± 0.028	0.918 ± 0.024
x2 = 0.8023	1.18 ± 0.03	0.969 ± 0.025
x2 = 0.8705	1.275 ± 0.032	1.054 ± 0.027
x2 = 0.9222	1.366 ± 0.034	1.119 ± 0.029
x2 = 0.9592	1.425 ± 0.036	1.167 ± 0.03

ClC(Cl)Cl + CS(C)=O
viscosity [mPa·s], 101.33 kPa
Conditions	x2 = 0.0955	x2 = 0.2039	x2 = 0.3021	x2 = 0.4068	x2 = 0.5023	x2 = 0.6044	x2 = 0.7038	x2 = 0.8047	x2 = 0.9014
298.15 K	0.642 ± 0.006	0.839 ± 0.01	1.018 ± 0.013	1.227 ± 0.018	1.365 ± 0.023	1.498 ± 0.028	1.611 ± 0.033	1.729 ± 0.038	1.842 ± 0.044
308.15 K	0.576 ± 0.006	0.738 ± 0.008	0.882 ± 0.012	1.057 ± 0.016	1.171 ± 0.019	1.276 ± 0.024	1.366 ± 0.028	1.458 ± 0.032	1.545 ± 0.037
318.15 K	0.527 ± 0.005	0.682 ± 0.008	0.8 ± 0.01	0.915 ± 0.014	1.011 ± 0.017	1.097 ± 0.02	1.171 ± 0.024	1.246 ± 0.028	1.309 ± 0.032

CC(=O)OCc1ccccc1 + CCCCCO
viscosity [mPa·s], 101.33 kPa
Conditions	x1 = 0.1074	x1 = 0.2083	x1 = 0.2988	x1 = 0.4051	x1 = 0.5012	x1 = 0.6057	x1 = 0.7115	x1 = 0.8097	x1 = 0.9004
293.15 K	3.865 ± 0.39	3.649 ± 0.37	3.465 ± 0.36	3.261 ± 0.34	3.087 ± 0.33	2.909 ± 0.31	2.738 ± 0.3	2.589 ± 0.29	2.459 ± 0.28
303.15 K	2.789 ± 0.3	2.661 ± 0.29	2.551 ± 0.28	2.427 ± 0.27	2.321 ± 0.27	2.21 ± 0.26	2.103 ± 0.25	2.009 ± 0.24	1.926 ± 0.23
313.15 K	2.194 ± 0.26	2.1 ± 0.25	2.018 ± 0.24	1.927 ± 0.23	1.848 ± 0.23	1.766 ± 0.22	1.686 ± 0.21	1.616 ± 0.21	1.553 ± 0.2
323.15 K	1.296 ± 0.18	1.288 ± 0.18	1.281 ± 0.18	1.274 ± 0.18	1.266 ± 0.18	1.259 ± 0.18	1.251 ± 0.18	1.244 ± 0.18	1.237 ± 0.18

FC(F)Cl + CC(F)F
viscosity [mPa·s], 101 kPa
Conditions	293.35 K	293.45 K	312.95 K	313.25 K
x1 = 0.159	–	0.178 ± 0.0048	0.1422 ± 0.0039	–
x1 = 0.34	–	0.1749 ± 0.0048	–	0.1424 ± 0.0039
x1 = 0.534	0.1805 ± 0.0049	–	–	0.1485 ± 0.004

CCCCCCCCCCCCCCCC + c1ccccc1
Conditions	viscosity
298 K, 101 kPa, x2 = 0.5	1.65 ± 0.043 mPa·s and 1.651 ± 0.043 mPa·s
298.15 K, 101.33 kPa, x1 = 0.0535	0.6803 ± 0.006 mPa·s
298.15 K, 101.33 kPa, x1 = 0.09944	0.7563 ± 0.0066 mPa·s
298.15 K, 101.33 kPa, x1 = 0.2199	0.9761 ± 0.0082 mPa·s
298.15 K, 101.33 kPa, x1 = 0.3234	1.161 ± 0.0095 mPa·s
298.15 K, 101.33 kPa, x1 = 0.4341	1.429 ± 0.011 mPa·s
298.15 K, 101.33 kPa, x1 = 0.5194	1.649 ± 0.013 mPa·s
298.15 K, 101.33 kPa, x1 = 0.641	1.972 ± 0.015 mPa·s
298.15 K, 101.33 kPa, x1 = 0.6928	2.107 ± 0.016 mPa·s
298.15 K, 101.33 kPa, x1 = 0.8361	2.492 ± 0.019 mPa·s
298.15 K, 101.33 kPa, x1 = 0.9416	2.887 ± 0.022 mPa·s
318 K, 101 kPa, x2 = 0.5	1.192 ± 0.032 mPa·s and 1.193 ± 0.032 mPa·s

CCOCCOCC + COCCOCCOCCO
viscosity [mPa·s], 101.33 kPa
Conditions	298.15 K	308.15 K
x2 = 0.0126	0.622 ± 0.017	0.539 ± 0.015
x2 = 0.0328	0.652 ± 0.018	0.561 ± 0.016
x2 = 0.052	0.688 ± 0.019	0.586 ± 0.016
x2 = 0.0807	0.73 ± 0.02	0.617 ± 0.017
x2 = 0.1339	0.824 ± 0.022	0.691 ± 0.019
x2 = 0.1806	0.917 ± 0.024	0.765 ± 0.021
x2 = 0.2394	1.047 ± 0.027	0.872 ± 0.023
x2 = 0.2918	1.18 ± 0.03	0.978 ± 0.025
x2 = 0.342	1.332 ± 0.033	1.097 ± 0.028
x2 = 0.385	1.473 ± 0.037	1.198 ± 0.03
x2 = 0.4103	1.588 ± 0.039	1.262 ± 0.032
x2 = 0.4604	1.801 ± 0.044	1.417 ± 0.035
x2 = 0.5091	2.04 ± 0.049	1.573 ± 0.039
x2 = 0.5505	2.273 ± 0.055	1.725 ± 0.042
x2 = 0.5978	2.561 ± 0.061	1.923 ± 0.047
x2 = 0.6522	2.935 ± 0.07	2.167 ± 0.052
x2 = 0.7117	3.396 ± 0.08	2.476 ± 0.059
x2 = 0.7976	4.169 ± 0.097	2.989 ± 0.071
x2 = 0.8577	4.791 ± 0.11	3.415 ± 0.08
x2 = 0.9256	5.588 ± 0.12	3.957 ± 0.092
x2 = 0.9633	6.103 ± 0.13	4.311 ± 0.1
